Test results as given in article PMC9887116, “SDI-118, a novel procognitive SV2A modulator: First-in-human randomized controlled trial including PET/fMRI assessment of target engagement” (Frontiers in Pharmacology, 2023).

Legend:
[1] = in vivo
Description: (§2) The study consisted of three parts. Part A was a double-blind, placebo-controlled (in a 6:2 SDI-118:placebo ratio), single ascending oral dose study performed in 16 subjects equally divided into two cohorts. […] Dose levels of .3, 1, 3, 10, 30, 60, 90 and 120 mg of SDI-118 were set to be administered in an alternating panel design with a minimum washout period of 7 days between subsequent periods. In each period two different sentinel subjects were dosed (in a 1:1 SDI-118:placebo ratio) and followed-up for safety for at least 48 h before the rest of the cohort received the same dose level of the study drug.
(§3) Safety and tolerability were assessed by questioning for adverse events (AEs), vital signs measurements (supine and orthostatic), 12-lead ECGs (always acquired in triplicate except during screening and post-study visit), standard lab safety tests on blood and urine samples, and physical and neurological examinations at regular time-points throughout the study.

[2] = tested on: screening panel of receptors and enzymes; experiment: screening panel of receptors and enzymes; settings: up to a concentration of 10 µM
Description: There were no SAEs or adverse events leading to subject discontinuation from the study. […] The most frequently reported drug related TEAEs were dizziness, hypersomnia, and somnolence, the latter reported only at the highest dose tested (i.e. 80 mg). The onset time of these events was generally short after dose administration, and their duration was usually short with resolution on the same day of dosing or the day after at the most. These mild and transient side effects started at the 10 mg dose and were also observed at higher doses. […] Occupancy at the higher doses would then progressively increase to a maximum of 96% of the predicted maximum at the 80 mg dose. Thus, the observed mild and transient side effects could be consistent with a target related effect seen, in some individuals, at occupancy levels greater than ∼60%. […] Further studies will elucidate this. None of the observed clinically significant changes in vital signs, laboratory parameters, and ECG intervals during the study were considered related to the administration of SDI-118.

[3] = first-in-human single oral dose safety and tolerability (adverse events)
Description: as §2, §3

[4] = cardiovascular safety pharmacology study in dogs; type: in vivo
[5] = target: human recombinant SV2A (hSV2A) (Homo sapiens, UniProt Q7L0J3); experiment: in vitro radioligand binding study using human recombinant SV2A; settings: read-out: half maximal inhibitory concentration (IC50)
human recombinant SV2A (hSV2A), sequence (Q7L0J3 whole entry): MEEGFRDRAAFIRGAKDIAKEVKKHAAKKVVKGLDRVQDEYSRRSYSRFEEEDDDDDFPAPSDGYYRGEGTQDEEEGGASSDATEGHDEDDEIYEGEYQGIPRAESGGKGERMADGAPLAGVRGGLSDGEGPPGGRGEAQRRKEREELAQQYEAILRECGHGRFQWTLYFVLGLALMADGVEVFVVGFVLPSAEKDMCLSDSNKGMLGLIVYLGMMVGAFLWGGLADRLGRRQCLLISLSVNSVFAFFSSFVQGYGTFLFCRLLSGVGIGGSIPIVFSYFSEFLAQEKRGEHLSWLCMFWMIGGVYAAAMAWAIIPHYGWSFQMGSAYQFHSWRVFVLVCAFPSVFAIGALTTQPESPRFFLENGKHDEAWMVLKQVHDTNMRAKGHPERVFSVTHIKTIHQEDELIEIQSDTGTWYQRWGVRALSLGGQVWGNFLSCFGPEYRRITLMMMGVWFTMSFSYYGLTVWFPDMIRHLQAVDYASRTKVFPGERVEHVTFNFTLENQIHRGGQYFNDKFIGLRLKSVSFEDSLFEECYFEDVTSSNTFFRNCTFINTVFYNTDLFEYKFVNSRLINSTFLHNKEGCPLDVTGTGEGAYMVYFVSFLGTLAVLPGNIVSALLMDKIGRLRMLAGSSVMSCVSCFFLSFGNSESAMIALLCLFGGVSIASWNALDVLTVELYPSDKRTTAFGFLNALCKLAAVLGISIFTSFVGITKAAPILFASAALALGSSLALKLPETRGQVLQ
Text: (§1) ([Löscher et al., 2016]). […] ([Lynch et al., 2004]; [Matagne et al., 2008]).

SV2C = settings: relative to SV2A
Text: as §1

SV2B = settings: relative to SV2A
Text: as §1

[6] = all subjects (n = 32), all single doses pooled
[7] = all subjects (n = 32), only at 80 mg

SMILES: O=C1C[C@H](c2cc(F)c(F)c(F)c2)CN1Cn1ncnc1Cl [SDI-118]
- onset time of dizziness, hypersomnia, somnolence after dose administration [1]: up to 4 h
- activity in screening panel of receptors and enzymes [2]: no activity was observed
- dizziness, drug related TEAE, number of events [3, 6]: 12 events
- dizziness, drug related TEAE, number of subjects [3, 6]: nine
- hypersomnia, drug related TEAE, number of events [3, 6]: 6 events
- hypersomnia, drug related TEAE, number of subjects [3, 6]: five
- somnolence, drug related TEAE, number of events [3, 7]: 2 events
- somnolence, drug related TEAE, number of subjects [3, 7]: two
- All drug related TEAEs: N (%) (number of subjects) ([3]; single oral dose 1 mg (N=8)): 1 (12.5) N (%)
- All drug related TEAEs: No. (number of observations) ([3]; single oral dose 1 mg (N=8)): 1
- Headache, drug related TEAE: N (%) (number of subjects) ([3]; single oral dose 1 mg (N=8)): 1 (12.5) N (%)
- Headache, drug related TEAE: No. (number of observations) ([3]; single oral dose 1 mg (N=8)): 1
- Nervous System Disorders, drug related TEAEs: N (%) (number of subjects) ([3]; single oral dose 1 mg (N=8)): 1 (12.5) N (%)
- Nervous System Disorders, drug related TEAEs: No. (number of observations) ([3]; single oral dose 1 mg (N=8)): 1
- All drug related TEAEs: N (%) (number of subjects) ([3]; single oral dose 3 mg (N=6)): 1 (16.7) N (%)
- All drug related TEAEs: No. (number of observations) ([3]; single oral dose 3 mg (N=6)): 1
- Cardiac Disorders, drug related TEAEs: N (%) (number of subjects) ([3]; single oral dose 3 mg (N=6)): 1 (16.7) N (%)
- Cardiac Disorders, drug related TEAEs: No. (number of observations) ([3]; single oral dose 3 mg (N=6)): 1
- Postural Dizziness, drug related TEAE: N (%) (number of subjects) ([3]; single oral dose 3 mg (N=6)): 1 (16.7) N (%)
- Postural Dizziness, drug related TEAE: No. (number of observations) ([3]; single oral dose 3 mg (N=6)): 1
- All drug related TEAEs: N (%) (number of subjects) ([3]; single oral dose 10 mg (N=16)): 4 (66.7) N (%)
- All drug related TEAEs: No. (number of observations) ([3]; single oral dose 10 mg (N=16)): 5
- Blurred vision, drug related TEAE: N (%) (number of subjects) ([3]; single oral dose 10 mg (N=16)): 1 (16.7) N (%)
- Blurred vision, drug related TEAE: No. (number of observations) ([3]; single oral dose 10 mg (N=16)): 1
- Dizziness, drug related TEAE: N (%) (number of subjects) ([3]; single oral dose 10 mg (N=16)): 1 (16.7) N (%)
- Dizziness, drug related TEAE: No. (number of observations) ([3]; single oral dose 10 mg (N=16)): 1
- Eye Disorders, drug related TEAEs: N (%) (number of subjects) ([3]; single oral dose 10 mg (N=16)): 1 (16.7) N (%)
- Eye Disorders, drug related TEAEs: No. (number of observations) ([3]; single oral dose 10 mg (N=16)): 1
- Fatigue, drug related TEAE: N (%) (number of subjects) ([3]; single oral dose 10 mg (N=16)): 1 (16.7) N (%)
- Fatigue, drug related TEAE: No. (number of observations) ([3]; single oral dose 10 mg (N=16)): 1
- General Disorders, drug related TEAEs: N (%) (number of subjects) ([3]; single oral dose 10 mg (N=16)): 1 (16.7) N (%)
- General Disorders, drug related TEAEs: No. (number of observations) ([3]; single oral dose 10 mg (N=16)): 1
- Hypersomnia, drug related TEAE: N (%) (number of subjects) ([3]; single oral dose 10 mg (N=16)): 2 (33.3) N (%)
- Hypersomnia, drug related TEAE: No. (number of observations) ([3]; single oral dose 10 mg (N=16)): 2
- Nervous System Disorders, drug related TEAEs: N (%) (number of subjects) ([3]; single oral dose 10 mg (N=16)): 3 (50.0) N (%)
- Nervous System Disorders, drug related TEAEs: No. (number of observations) ([3]; single oral dose 10 mg (N=16)): 3
- All drug related TEAEs: N (%) (number of subjects) ([3]; single oral dose 20 mg (N=8)): 4 (50.0) N (%)
- All drug related TEAEs: No. (number of observations) ([3]; single oral dose 20 mg (N=8)): 4
- Dizziness, drug related TEAE: N (%) (number of subjects) ([3]; single oral dose 20 mg (N=8)): 4 (50.0) N (%)
- Dizziness, drug related TEAE: No. (number of observations) ([3]; single oral dose 20 mg (N=8)): 4
- Nervous System Disorders, drug related TEAEs: N (%) (number of subjects) ([3]; single oral dose 20 mg (N=8)): 4 (50.0) N (%)
- Nervous System Disorders, drug related TEAEs: No. (number of observations) ([3]; single oral dose 20 mg (N=8)): 4
- All drug related TEAEs: N (%) (number of subjects) ([3]; single oral dose 40 mg (N=6)): 3 (50.0) N (%)
- All drug related TEAEs: No. (number of observations) ([3]; single oral dose 40 mg (N=6)): 4
- Dizziness, drug related TEAE: N (%) (number of subjects) ([3]; single oral dose 40 mg (N=6)): 3 (50.0) N (%)
- Dizziness, drug related TEAE: No. (number of observations) ([3]; single oral dose 40 mg (N=6)): 3
- Hypersomnia, drug related TEAE: N (%) (number of subjects) ([3]; single oral dose 40 mg (N=6)): 1 (16.7) N (%)
- Hypersomnia, drug related TEAE: No. (number of observations) ([3]; single oral dose 40 mg (N=6)): 1
- Nervous System Disorders, drug related TEAEs: N (%) (number of subjects) ([3]; single oral dose 40 mg (N=6)): 3 (50.0) N (%)
- Nervous System Disorders, drug related TEAEs: No. (number of observations) ([3]; single oral dose 40 mg (N=6)): 4
- All drug related TEAEs: N (%) (number of subjects) ([3]; single oral dose 60 mg (N=6)): 3 (50.0) N (%)
- All drug related TEAEs: No. (number of observations) ([3]; single oral dose 60 mg (N=6)): 4
- Cardiac Disorders, drug related TEAEs: N (%) (number of subjects) ([3]; single oral dose 60 mg (N=6)): 1 (16.7) N (%)
- Cardiac Disorders, drug related TEAEs: No. (number of observations) ([3]; single oral dose 60 mg (N=6)): 1
- Dizziness, drug related TEAE: N (%) (number of subjects) ([3]; single oral dose 60 mg (N=6)): 2 (33.3) N (%)
- Dizziness, drug related TEAE: No. (number of observations) ([3]; single oral dose 60 mg (N=6)): 2
- Hypersomnia, drug related TEAE: N (%) (number of subjects) ([3]; single oral dose 60 mg (N=6)): 1 (16.7) N (%)
- Hypersomnia, drug related TEAE: No. (number of observations) ([3]; single oral dose 60 mg (N=6)): 1
- Nervous System Disorders, drug related TEAEs: N (%) (number of subjects) ([3]; single oral dose 60 mg (N=6)): 2 (33.3) N (%)
- Nervous System Disorders, drug related TEAEs: No. (number of observations) ([3]; single oral dose 60 mg (N=6)): 3
- Postural Dizziness, drug related TEAE: N (%) (number of subjects) ([3]; single oral dose 60 mg (N=6)): 1 (16.7) N (%)
- Postural Dizziness, drug related TEAE: No. (number of observations) ([3]; single oral dose 60 mg (N=6)): 1
- All drug related TEAEs: N (%) (number of subjects) ([3]; single oral dose 80 mg (N=6)): 4 (66.7) N (%)
- All drug related TEAEs: No. (number of observations) ([3]; single oral dose 80 mg (N=6)): 8
- Dizziness, drug related TEAE: N (%) (number of subjects) ([3]; single oral dose 80 mg (N=6)): 2 (33.3) N (%)
- Dizziness, drug related TEAE: No. (number of observations) ([3]; single oral dose 80 mg (N=6)): 2
- Headache, drug related TEAE: N (%) (number of subjects) ([3]; single oral dose 80 mg (N=6)): 1 (16.7) N (%)
- Headache, drug related TEAE: No. (number of observations) ([3]; single oral dose 80 mg (N=6)): 1
- Hypersomnia, drug related TEAE: N (%) (number of subjects) ([3]; single oral dose 80 mg (N=6)): 2 (33.3) N (%)
- Hypersomnia, drug related TEAE: No. (number of observations) ([3]; single oral dose 80 mg (N=6)): 2
- Irritability, drug related TEAE: N (%) (number of subjects) ([3]; single oral dose 80 mg (N=6)): 1 (16.7) N (%)
- Irritability, drug related TEAE: No. (number of observations) ([3]; single oral dose 80 mg (N=6)): 1
- Nervous System Disorders, drug related TEAEs: N (%) (number of subjects) ([3]; single oral dose 80 mg (N=6)): 4 (66.7) N (%)
- Nervous System Disorders, drug related TEAEs: No. (number of observations) ([3]; single oral dose 80 mg (N=6)): 7
- Psychiatric Disorders, drug related TEAEs: N (%) (number of subjects) ([3]; single oral dose 80 mg (N=6)): 1 (16.7) N (%)
- Psychiatric Disorders, drug related TEAEs: No. (number of observations) ([3]; single oral dose 80 mg (N=6)): 1
- Somnolence, drug related TEAE: N (%) (number of subjects) ([3]; single oral dose 80 mg (N=6)): 2 (33.3) N (%)
- Somnolence, drug related TEAE: No. (number of observations) ([3]; single oral dose 80 mg (N=6)): 2
- intensity of drug related TEAEs ([3]; single oral doses 0.3-80 mg): mild in intensity
- neurological examination ([3]; single oral doses 0.3-80 mg): No abnormalities were found
- serious adverse events (SAEs) ([3]; single oral doses 0.3-80 mg): no serious adverse events
- safety and tolerability of single oral dose ([3]; up to 80 mg, healthy male subjects): safe and well tolerated
- findings in cardiovascular safety pharmacology study [4]: absence of any adverse findings
- IC50 [5]: 0.013 µM
- selectivity over SV2C (SV2C): over 100 fold
- selectivity over SV2B (SV2B): over 1000 fold
